Measurements reported in patent US8080567B2, “EP2 receptor agonists” (Asterand UK Limited, priority 2005, dated 2011).

Experiments:
human EP4 receptor = target: T1, human EP4 receptor (Homo sapiens, UniProt P35408); experiment: Binding ability to human EP receptors, [3H]PGE2 displacement, EP4; settings: membranes expressing human EP4 receptor; [3H]PGE2 1 nM; Cheng-Prusoff; read-out: pKi (M) EP4 (converted)
T1 construct: expressed in transfected cells; HEK-293 is named only for the cAMP assay
Experimental: (§1) Membranes were prepared from cells stably transfected with human EP receptor cDNA. In brief, cells were cultured to confluency, scraped from culture flasks, and centrifuged (800 g, 8 minutes, 4° C.). Cells were twice washed in ice cold homogenisation buffer containing 10 mM Tris-HCl, 1 mM EDTA.2Na, 250 mM sucrose, 1 mM PMSF, 0.3 mM indomethacin, pH 7.4, homogenised and re-centrifuged as before. The supernatant was stored on ice and pellets re-homogenised and re-spun. Supernatants were pooled and centrifuged at 40000 g, 10 minutes, 4° C. Resultant membrane pellets were stored at −80° C. until use.
(§2) For assay, membranes expressing human EP4, EP3, EP2 or EP1 receptors were incubated in Millipore (MHVBN45) plates containing assay buffer, radiolabelled [^3H]PGE2 and 0.1 to 10 000 nM concentrations of compounds. Incubations were performed at suitable temperatures and for suitable times to allow equilibrium to be reached. Non-specific binding was determined in the presence of 10 uM PGE2. Bound and free radiolabel was separated by vacuum manifold filtration using appropriate wash buffers, and bound radiolabel was determined by scintillation counting. Constituents of each of the buffers are included in table 1 below.
(§3) The affinity or pKi of each compound for each receptor was calculated from the concentration causing 50% radioligand displacement (IC50) using the Cheng-Prusoff equation: […]
(§4) This approach follows that set out in Kenakin, T. P., Pharmacologic analysis of drug receptor interaction. Raven Press, New York, 2nd edition.

human EP2 receptor = target: T2, human EP2 receptor (Homo sapiens, UniProt P43116); experiment: Binding ability to human EP receptors, [3H]PGE2 displacement, EP2; settings: membranes expressing human EP2 receptor; [3H]PGE2 3 nM; Cheng-Prusoff; read-out: pKi (M) EP2 (converted)
T2 construct: expressed in transfected cells; HEK-293 is named only for the cAMP assay
Experimental: as §1, §2, §3, §4

T2 sequence (P43116 whole entry): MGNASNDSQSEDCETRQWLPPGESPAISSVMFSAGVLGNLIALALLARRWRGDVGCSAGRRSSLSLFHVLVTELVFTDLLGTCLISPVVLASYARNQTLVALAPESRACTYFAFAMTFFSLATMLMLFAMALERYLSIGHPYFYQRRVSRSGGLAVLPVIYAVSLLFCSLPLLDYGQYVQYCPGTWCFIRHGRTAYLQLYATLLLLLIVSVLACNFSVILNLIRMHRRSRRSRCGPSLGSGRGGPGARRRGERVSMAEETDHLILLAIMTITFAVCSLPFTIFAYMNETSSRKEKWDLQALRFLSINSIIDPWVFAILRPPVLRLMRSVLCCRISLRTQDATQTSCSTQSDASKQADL
T1 sequence (P35408 whole entry): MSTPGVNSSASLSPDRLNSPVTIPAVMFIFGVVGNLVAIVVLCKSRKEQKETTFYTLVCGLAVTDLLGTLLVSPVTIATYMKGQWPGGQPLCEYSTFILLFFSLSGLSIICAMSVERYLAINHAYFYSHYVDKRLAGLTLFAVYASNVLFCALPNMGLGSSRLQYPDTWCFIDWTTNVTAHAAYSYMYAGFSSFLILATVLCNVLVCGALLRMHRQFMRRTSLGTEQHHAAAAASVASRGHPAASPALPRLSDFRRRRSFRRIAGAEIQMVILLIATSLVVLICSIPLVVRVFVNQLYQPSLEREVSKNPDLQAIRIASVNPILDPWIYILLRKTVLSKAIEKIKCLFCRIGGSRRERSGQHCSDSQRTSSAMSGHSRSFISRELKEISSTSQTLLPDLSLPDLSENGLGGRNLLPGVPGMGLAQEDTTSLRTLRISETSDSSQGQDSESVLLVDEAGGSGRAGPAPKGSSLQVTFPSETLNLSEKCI

Ki (human EP4 receptor)	Ki (human EP2 receptor)	SMILES
> 1e-06 M	< 1e-06 M	O=C(O)C=Cc1cccc(C=Cc2ccc(-c3ccccc3)o2)c1 [Compound 29, 3-{3-[2-(5-Phenyl-furan-2-yl)-vinyl]-phenyl}-acrylic acid]
> 1e-06 M	< 1e-06 M	O=C(O)C=Cc1cccc(NC(=O)c2ccc(-c3ccccc3)o2)n1 [Compound 40, 3-{6-[(5-Phenyl-furan-2-carbonyl)-amino]-pyridin-2-yl}-acrylic acid]
> 1e-06 M	< 1e-06 M	N=C(Nc1cccc(C=CC(=O)O)c1)c1cc(-c2ccccc2)ccc1F [Compound 58, 3-{3-[(4-Fluoro-biphenyl-3-carboximidoyl)-amino]-phenyl}-acrylic acid]
> 1e-06 M	< 1e-07 M	O=C(O)C=Cc1cccc(NC(=O)c2ccc(Oc3ccccc3)o2)c1 [Compound 5, 3-{3-[(5-Phenoxy-furan-2-carbonyl)-amino]-phenyl}-acrylic acid]
> 1e-07 M	< 1e-08 M	O=C(O)C=Cc1ccc(Cl)c(NC(=O)c2cc(-c3ccccc3)ccc2F)c1 [Compound 52, 3-{4-Chloro-3-[(4-fluoro-biphenyl-3-carbonyl)-amino]-phenyl}-acrylic acid]
> 1e-06 M	< 1e-07 M	O=C(O)C=Cc1cccc(NC(=O)c2ccc3oc4ccccc4c3c2)c1 [Compound 20, 3-{3-[(Dibenzofuran-2-carbonyl)-amino]-phenyl}-acrylic acid]
> 1e-06 M	< 1e-07 M	O=C(O)C=Cc1cccc(NC(=O)c2ccc(C(=O)c3ccccc3)o2)c1 [Compound 11, 3-{3-[(5-Benzoyl-furan-2-carbonyl)-amino]-phenyl}-acrylic acid]
> 1e-06 M	< 1e-06 M	O=C(O)C=Cc1cccc(-c2nc3cc(-c4ccccc4)ccc3o2)c1 [Compound 34, 3-[3-(5-Phenyl-benzoxazol-2-yl)-phenyl]-acrylic acid]
> 1e-06 M	< 1e-06 M	O=C(O)C=Cc1cccc(CC(O)c2ccc(-c3ccccc3)o2)c1 (stereo not shown) [Compound 28, 3-{3-[2-Hydroxy-2-(5-phenyl-furan-2-yl)-ethyl]-phenyl}-acrylic acid]
> 1e-06 M	< 1e-06 M	O=C(O)C=Cc1cccc(Sc2cccc(-c3ccccc3)n2)c1 [Compound 16, 3-[3-(6-Phenyl-pyridin-2-ylsulfanyl)-phenyl]-acrylic acid]
> 1e-06 M	< 1e-07 M	O=C(O)C=Cc1ccc(F)c(NC(=O)c2ccc(-c3ccccc3)o2)c1 [Compound 45, 3-{4-Fluoro-3-[(5-phenyl-furan-2-carbonyl)-amino]-phenyl}-acrylic acid]
